In ChEMBL document CHEMBL4004891, “Antioxidant Properties of Novel Dimers Derived from Natural β-Elemene through Inhibiting H2O2-Induced Apoptosis” (ACS Med Chem Lett, 2017):
Active and inactive are the calls of the source. The rule behind the calls is not given here.

tested on: HUVEC; experiment: Cytoprotective activity against H2O2-induced cell injury in HUVEC assessed as increase in cell viability at 10 uM pretreated for 24 hrs followed by H2O2-stimulation after 2 hrs by MTT assay; format: functional, cell-based; conditions: Homo sapiens

| Molecule | Activity |
| --- | --- |
| C=C[C@]1(C)CC[C@@H](C(=C)COC(=O)CCCN2CCN(CCCC(=O)OCC(=C)[C@@H]3CC[C@@](C)(C=C)[C@H](C(=C)C)C3)CC2)C[C@H]1C(=C)C | Active |
| C=C[C@]1(C)CC[C@@H](C(=C)COCc2cn(CCCCCC(=O)OCC(=C)[C@@H]3CC[C@@](C)(C=C)[C@H](C(=C)C)C3)nn2)C[C@H]1C(=C)C | Active |
| C=C[C@]1(C)CC[C@@H](C(=C)COCc2cn(CCCCCCn3cc(COCC(=C)[C@@H]4CC[C@@](C)(C=C)[C@H](C(=C)C)C4)nn3)nn2)C[C@H]1C(=C)C | Active |
| C=C[C@]1(C)CC[C@@H](C(=C)COC(=O)CCC(=O)OCC(=C)[C@@H]2CC[C@@](C)(C=C)[C@H](C(=C)C)C2)C[C@H]1C(=C)C | Active |
| C=C[C@]1(C)CC[C@@H](C(=C)COC(=O)c2cn(CCCCCCn3cc(C(=O)OCC(=C)[C@@H]4CC[C@@](C)(C=C)[C@H](C(=C)C)C4)nn3)nn2)C[C@H]1C(=C)C | Active |
| C=C[C@]1(C)CC[C@@H](C(=C)COCc2cn(CCCCn3cc(COCC(=C)[C@@H]4CC[C@@](C)(C=C)[C@H](C(=C)C)C4)nn3)nn2)C[C@H]1C(=C)C | Active |
| C=C[C@]1(C)CC[C@@H](C(=C)COC(=O)c2cccc3cccc(C(=O)OCC(=C)[C@@H]4CC[C@@](C)(C=C)[C@H](C(=C)C)C4)c23)C[C@H]1C(=C)C | Active |
| C=C[C@]1(C)CC[C@@H](C(=C)COC(=O)c2cccc(C(=O)OCC(=C)[C@@H]3CC[C@@](C)(C=C)[C@H](C(=C)C)C3)c2)C[C@H]1C(=C)C | Active |

tested on: HUVEC; experiment: Cytoprotective activity against H2O2-induced cell injury in HUVEC assessed as increase in cell viability at 100 uM pretreated for 24 hrs followed by H2O2-stimulation after 2 hrs by MTT assay; format: functional, cell-based; conditions: Homo sapiens

| Molecule | Activity |
| --- | --- |
| VITAMIN E | Active |
